This note sets out measurements from patent publication US20150299801A1, “Techniques for Treating Acute Lymphoblastic Leukemia (ALL)” (THE TRUSTEES OF COLUMBIA UNIVERSITY IN THE CITY OF NEW YORK, priority 2012, published 2015).

Structures are written as SMILES.

Test [1] concerns CCRF-CEM T-ALL cells expressing relapse-associated mutant NT5C2 alleles. In words: MTT cell viability and chemotherapy drug response, CCRF-CEM cells expressing mutant NT5C2. The format is cell-based. The settings on record: for IC50: Homo sapiens, CCRF-CEM cells expressing mutation (NT5C2 R367Q), read from graph, viability relative to vehicle treated cells, read-out: log concentration at which viability falls to 50% (converted); for increase of IC50 for mutations versus control (RFP) or wild type (NT5C2 WT): CCRF-CEM cell line, NT5C2 R367Q, D407A; for resistance to therapy compared with empty vector and wild type NT5C2 controls: cells expressing NT5C2 K359Q, R367Q and D407A, increased drug concentrations. How it is done: (§1) To formally test the role of NT5C2 mutations in chemotherapy resistance, the effects of wild type and relapse-associated mutant NT5C2 expression were analyzed in the response of CCRF-CEM T-ALL cells to 6-mercaptopurine (6-MP) and 6-thyogunanine (6-TG). Expression of NT5C2 mutations in ALL cells induces resistance to chemotherapy with 6-MP and 6-TG. Viability assays were performed in CCRF-CEM and CUTLL1 T-ALL cells expressing wild type NT5C2, relapse-associated mutant NT5C2 alleles, or a red fluorescent protein (RFP) as control, treated with increased concentrations of the nucleoside analog chemotherapeutic drugs.
(§2) CCRF-CEM and CUTLL1 cells were cultured in RPMI-1640 media supplemented with 10% fetal bovine serum, 100U/ml penicillin G and 100 ug/ml streptomycin at 37 C in a humidified atmosphere under 5% CO2. HEK293T were maintained under similar conditions in DMEM media.
(§3) The lentiviral constructs pLOC-NT5C2, pLOC-NT5C2 359, pLOC-I 367, pLOC-I 407 and the pLOC-RFP control plasmid were transfected with gag-pol and V-SVG expressing vectors into HEK293T cells using JetPEI transfection reagent (Polyplus, of Illkirch, France). Viral supernatants were collected after 48 h and used for infection of CCRF-CEM and CUTLL1 cells by spinoculation. After infection, cells were selected for 5 days in blasticidin and ficolled the day before experiments.
(§4) Cell viability was determined by measurement of the metabolic reduction of the tetrazolium salt MTT using the Cell Proliferation Kit I (Roche, of Indianapolis, Ind.) following the manufacturer instructions. Experiments were done in triplicates. Viability was analyzed after 48 or 72 hours of initiation of treatment with 6-mercaptopurine, 6-thioguanine, nelarabine and Ara-G.

The test system of test [2] is CCRF-CEM T-ALL cells expressing RFP control or wild type NT5C2. In words: MTT cell viability and chemotherapy drug response, CCRF-CEM control cells. The format is cell-based. The conditions noted are these: Homo sapiens; CCRF-CEM cells expressing RFP control or NT5C2 WT; read from graph; read-out: log concentration at which viability falls to 50% (converted). The protocol: as §1, §2, §3, §4

The next test concerns the target T1, NT5C2 Q523X (Homo sapiens, UniProt P49902).
T1 construct: His6 (N); made in house; host or cells: Rosetta 2(DE3) E. coli (described for WT, K359Q, R367Q, D407A)
Briefly: 5'-nucleotidase activity as a function of ATP concentration, Q523X. The class given is biochemical.

In the next test the target is T2, NT5C2 R291W (Homo sapiens, UniProt P49902, R291W).
T2 construct: His6 (N); made in house; host or cells: Rosetta 2(DE3) E. coli (described for WT, K359Q, R367Q, D407A)
T2 sequence (P49902 whole entry R291W): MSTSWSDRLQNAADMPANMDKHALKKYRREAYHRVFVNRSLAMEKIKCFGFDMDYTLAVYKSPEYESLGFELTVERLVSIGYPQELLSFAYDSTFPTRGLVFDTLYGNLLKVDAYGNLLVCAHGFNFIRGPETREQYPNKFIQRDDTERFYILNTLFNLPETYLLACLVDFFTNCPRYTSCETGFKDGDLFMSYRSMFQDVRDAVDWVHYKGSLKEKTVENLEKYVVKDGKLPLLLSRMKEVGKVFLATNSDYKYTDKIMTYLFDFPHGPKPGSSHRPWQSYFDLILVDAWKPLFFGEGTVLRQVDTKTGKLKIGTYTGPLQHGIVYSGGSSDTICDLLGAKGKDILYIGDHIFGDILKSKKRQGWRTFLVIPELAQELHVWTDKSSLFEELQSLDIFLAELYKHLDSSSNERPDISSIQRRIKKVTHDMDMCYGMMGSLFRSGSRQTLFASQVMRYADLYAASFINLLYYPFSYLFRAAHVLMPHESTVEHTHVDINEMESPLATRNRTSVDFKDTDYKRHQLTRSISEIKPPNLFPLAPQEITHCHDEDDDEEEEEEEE
In words: 5'-nucleotidase activity as a function of ATP concentration, R291W. The class given is biochemical.

In a further test the target is T3, NT5C2 WT (Homo sapiens, UniProt P49902).
T3 construct: Full length cDNA constructs encoding wild type NT5C2, NT5C2 K359Q, NT5C2 R367Q and NT5C2 D407A were cloned; His6 (N); made in house; host or cells: Rosetta 2(DE3) E. coli
Briefly: 5'-nucleotidase activity as a function of ATP concentration, wild type. The class given is biochemical. The protocol:
(§5) Biochemical nucleotidase assays measuring release of phosphate upon incubation of NT5C2 with phosphonucleodides were used, including a commercial kit that measures enzymatic activity. (See file DZ123A.php in subfolder reagents of folder products in the World Wide Web at domain diazyme in category corn.)
(§6) Full length cDNA constructs encoding wild type NT5C2, NT5C2 K359Q, NT5C2 R367Q and NT5C2 D407A were cloned with an N-terminal His6 tag in the pET28a-LIC expression vector using the In-Fusion HD PCR cloning system (Clontech, of Mountain View, Calif.), as per manufacturer's instructions. Recombinant proteins were expressed from Rosetta 2(DE3) E. coli cells by induction with 0.5 mM isopropyl-β-D-thiogalactopyranoside for 3 hours at 37° C. […] Protein expression and purity was assessed y SDS-PAGE and Coomassie staining.
(§7) 5′-Nucleotidase activity of purified recombinant wild type and mutant NT5C2 proteins was assessed using the 5′-nucleotidase (5′-NT) Enzymatic Test Kit (Diazyme, of Poway, Calif.), according to the manufacturer's instructions. […] H2O2 is quantified using a Trinder reaction. 5′-Nucleotidase activity levels are calculated using a calibrator of known 5′-NT activity as standard. Assays were performed in triplicate in an Infinite M200 Tecan (of Mannedorf, Switzerland) plate reader.

Test [3] has as its system NT5C2 K359Q, R367Q, D407A, L375F, R238W. Briefly: 5'-nucleotidase activity as a function of ATP concentration, remaining mutations. The format is biochemical, human. How it is done: as §5, §6, §7
In test [4] the test system is CUTLL1 T-ALL cells expressing relapse-associated mutant NT5C2 alleles. In words: MTT cell viability and chemotherapy drug response, CUTLL1 cells expressing mutant NT5C2. The conditions noted are these: for increase of IC50 for mutations versus control (RFP) or wild type (NT5C2 WT): CUTLL1 cell line, NT5C2 R367Q, D407A. The class given is cell-based. How it is done:
as §1, §2, §3, §4

Test [5] has as its system CUTLL1 T-ALL cells expressing RFP control or wild type NT5C2. In words: MTT cell viability and chemotherapy drug response, CUTLL1 control cells. The format is cell-based. The conditions noted are these: CUTLL1 cells expressing RFP control or NT5C2 WT; read from graph; read-out: log concentration at which viability falls to 50% (converted). How it is done:
as §1
CCRF-CEM and CUTLL1 cells were cultured in RPMI-1640 media supplemented with 10% fetal bovine serum, 100U/ml penicillin G and 100 ug/ml streptomycin at 37 C in a humidified atmosphere under 5% CO2. HEK293T were maintained under similar conditions in DMEM media. […]
Cell viability was determined by measurement of the metabolic reduction of the tetrazolium salt MTT using the Cell Proliferation Kit I (Roche, of Indianapolis, Ind.) following the manufacturer instructions. […] Viability was analyzed after 48 or 72 hours of initiation of treatment with 6-mercaptopurine, 6-thioguanine, nelarabine and Ara-G.

Where [6] appears, read: read-out: A0.5, ATP concentration to achieve an activity equal to half Vmax.

T1 sequence (P49902 1-522 limits assumed): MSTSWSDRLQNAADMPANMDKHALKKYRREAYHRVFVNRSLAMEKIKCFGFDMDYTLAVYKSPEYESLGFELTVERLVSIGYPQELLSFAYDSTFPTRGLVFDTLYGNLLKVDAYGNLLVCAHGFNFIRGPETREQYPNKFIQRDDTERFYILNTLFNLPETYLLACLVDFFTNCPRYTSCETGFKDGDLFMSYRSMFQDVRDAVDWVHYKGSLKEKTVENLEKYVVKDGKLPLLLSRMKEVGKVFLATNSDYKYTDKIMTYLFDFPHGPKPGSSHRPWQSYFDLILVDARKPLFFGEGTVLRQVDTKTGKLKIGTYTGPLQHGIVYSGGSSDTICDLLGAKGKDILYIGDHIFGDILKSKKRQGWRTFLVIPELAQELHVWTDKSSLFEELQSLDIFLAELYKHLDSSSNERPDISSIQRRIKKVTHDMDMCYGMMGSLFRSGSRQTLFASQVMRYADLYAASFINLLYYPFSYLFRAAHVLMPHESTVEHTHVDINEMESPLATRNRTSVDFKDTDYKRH

Take `COc1nc(N)nc2c1ncn2[C@@H]1O[C@H](CO)[C@@H](O)[C@@H]1O` [nelarabine]: the “activity in cells expressing relapse-associated NT5C2 mutations compared to controls” value in test [1] is reported as “equally active”. Also, the IC50 in test [1] and in test [2] was roughly 100 µM each time.
For `Nc1ncnc2c1ncn2[C@@H]1O[C@H](COP(=O)(O)OP(=O)(O)OP(=O)(O)O)[C@@H](O)[C@H]1O` [ATP], the figures for the “5'-NT activity relative to 0 mM ATP (factor of increase)” value on NT5C2 Q523X, at NT5C2 R291W and at NT5C2 WT (ATP concentrations over 20 mM) were “over 20”, “over 20” and “over 60”, respectively. Also, the EC50 was roughly 3000 µM at NT5C2 Q523X (setting [6]); roughly 4000 µM on NT5C2 R291W (setting [6]); 19500 µM on NT5C2 WT (setting [6]); less than 1000 µM in test [3] (remaining mutations, read-out: A0.5, ATP concentration to achieve an activity equal to half Vmax). Moreover, the “5'-NT activity relative to 0 mM ATP” value in test [3] (K359Q, R367Q, D407A, L375F, R238W) was “little change between reference activity and maximum activity”.
`Nc1nc2nc[nH]c2c(=S)[nH]1` [6-TG, 6-thioguanine]: the figures for the “increase of IC50 for mutations versus control (RFP) or wild type (NT5C2 WT)” value in test [4] and in test [1] were “about double” and “greater than ten times as much”, respectively. The IC50 was roughly 3.16 µM in test [4] (CUTLL1 cells expressing mutation NT5C2 R367Q, read from graph, read-out: log concentration at which viability falls to 50% (converted)); roughly 1 µM in test [5]; roughly 1 µM in test [2]. Moreover, the “resistance to therapy compared with empty vector and wild type NT5C2 controls” value in test [1] is listed as “increased resistance”.
For the compound `Nc1nc2c(ncn2[C@@H]2O[C@H](CO)[C@@H](O)[C@@H]2O)c(=O)[nH]1` [AraG], in test [1], the “activity in cells expressing relapse-associated NT5C2 mutations compared to controls” value is “equally active”.
In the case of `Sc1ncnc2nc[nH]c12` [6-MP, 6-mercaptopurine], the “increase of IC50 for mutations versus control (RFP) or wild type (NT5C2 WT)” value in test [4] is listed as “greater than ten times as much”; in test [1], “about double”. For the same compound, the IC50 was roughly 6.31 µM in test [5], roughly 10 µM in test [1] and roughly 6.31 µM in test [2]. Further, the “resistance to therapy compared with empty vector and wild type NT5C2 controls” value in test [1] was “increased resistance”.
